Laboratory results from patent US20040254252A1, “Compositions containing a combination of a pharmaceutical agent or a cosmetic agent and an oxy group-bearing aromatic aldehyde and their use in treatments” (priority 2003, published 2004).

What was measured:
[1] = Franz cell percutaneous absorption analysis; type: in vitro ADME, human; conditions: from lotion formulation with 1.0% 4-ethoxybenzaldehyde; 24 hour period
Description: This lotion was then tested by Franz cell percutaneous absorption analysis to determine how much 4-EB could penetrate human skin over a 24 hour period. The lotion formulation above provided a flux rate of 4-EB through human skin of 30-50 micrograms/hour.

[2] = system: UV-induced erythema; assay: UVB-induced erythema on inner forearm of a volunteer, topical lotion; type: in vivo, human; conditions: next day, 14 hours post-irradiation
Description: This lotion was then tested to determine if it could prevent an inflammatory response when applied topically to human skin. For this study a lab volunteer was irradiated on a quarter sized spot on the inner forearm with 60-80 mJ of UVB light (a sunlamp). This dose was sufficient to cause a highly visible red erythema response. Immediately following irradiation on both arms, one arm was treated with the above 4-EB lotion while the other arm was treated with the same lotion formulation but with no 4-EB.

[3] = system: IL-1 induction of PGE-2; assay: IL-1 induction of PGE-2 in human skin fibroblasts, ELISA of culture medium; type: cell-based
Description: For this experiment, human skin fibroblasts were seeded into 12 well culture dishes at a density of 80,000 cells/wells in tissue culture medium and left overnight to attach to the dish. The next day, medium was removed and replaced with fresh medium containing either 1% ethanol as a diluent control, IL-1 at a concentration of 500 picograms/ml, or IL-1 plus 4-EB at either 250 μM or 500 μM. Cells were incubated for an additional 24 hours and at this time, the medium was removed and assayed by ELISA for the presence of PGE-2 in the culture medium. […] The percent inhibitions are as follows: 4-EB, 100%, 6% and 10% at 50 μM, 10 μM and 1 μM.
Subsequent studies were carried out to determine the dose-response of human skin fibroblasts to 4-EB. […] The results of the study are provided graphically in FIG. 3A.
For this experiment, human skin fibroblasts were seeded into 12 well culture dishes at a density of 80,000 cells/wells in tissue culture medium and left overnight to attach to the dish. The next day, medium was removed and replaced with fresh medium containing either 1% ethanol as a diluent control, IL-1 at a concentration of 500 picograms/ml, or IL-1 plus one of the compounds under investigation at a concentration of 1, 10, 50 or 100 μM. Cells were incubated for an additional 24 hours and at this time, the medium was removed and assayed by ELISA for the presence of PGE-2 in the culture medium.

[4] = system: TPA-induced PGE2 expression in keratinocytes; assay: TPA-induced PGE-2 in human skin keratinocytes, ELISA of culture medium; type: cell-based; design: percent inhibition of TPA-induced PGE-2: unit of the concentration uncertain; conditions: TPA 32 nM
Description: Similar in vitro studies as those described in Example 1 were run using human skin keratinocytes. The experimental set up was the same as described for Example 2, but replacing IL-1 with tetradecanoyl phorbol acetate (TPA) at a concentration of 32 nM as the agonist.
Similar in vitro studies as those described in Example 4 were run using human skin keratinocytes. The experimental set up was the same as described for Example 5 but replacing IL-1 with tetradecanoyl phorbol acetate (TPA) at a concentration of 32 nM as the agonist. The compounds tested were 2-ethoxybenzaldehyde (2-EB), and 3-ethoxybenzaldehyde (3-EB) and 4-ethoxybenzaldehyde (4-EB) in concentrations of either 10, 50, or 100 μM.

Row | flux rate of 4-EB through human skin [1] | SMILES | redness of the treated spot [2] | percent inhibition of IL-1 induced PGE-2 ([3]; 50 μM, IL-1 500 picograms/ml, 24 hours) | block of the IL-1 induction of PGE-2 (in words) ([3]; 100 μM, dose-response study) | inhibition of the IL-1 induction of PGE-2 ([3]; 250 μM, IL-1 500 picograms/ml, 24 hours) | inhibition of the IL-1 induction of PGE-2 ([3]; 500 μM, IL-1 500 picograms/ml, 24 hours) | percent inhibition of TPA-induced PGE-2 ([4]; 50 μM) | percent inhibition of TPA-induced PGE-2 ([4]; 1001 (unit uncertain)) | inhibition at 50 µM ([4]; Homo sapiens, Keratinocyte, 50 μM, read-out: percent inhibition of TPA-induced PGE-2) | inhibition at 100 µM ([4]; Homo sapiens, Keratinocyte, 100 μM, read-out: percent inhibition of TPA-induced PGE-2) | inhibition of the IL-1 induced production of PGE-2 (in words) ([3]; 50 μM)
1 | 30-50 micrograms/hour | CCOc1ccc(C=O)cc1 [4-EB, 4-ethoxybenzaldehyde] | no redness | 82% | completely blocked | complete inhibition | complete inhibition | 79.9% | 94.9% | 79.9% | 94.9% | –
2 | – | COc1ccc(C=O)cc1 [4-MB, 4-methoxybenzaldehyde] | – | – | – | – | – | – | – | – | – | did not appear to inhibit
